Measurements as given in patent US10906888B2, “Pyrimidine carboxamides as inhibitors of Vanin-1 enzyme” (Pfizer Inc., priority 2016, dated 2021).

How the values were obtained:
[1] = target: human vanin-1 present in human plasma (Homo sapiens (Human), UniProt O95497); experiment: Vanin-1 in Human Plasma Assay; format: biochemical; settings: 50% pooled human plasma, 50 uM substrate
Protocol: Vanin-1 in Human Plasma Assay.
The in vitro assay measures enzymatic cleavage of the fluorescently-labeled vanin substrate, pantetheine 7-amino-4-trifluoromethylcoumarin, by human vanin-1 present in human plasma.
Human plasma was prepared from whole blood drawn from healthy donors, collected in tubes containing sodium heparin. The plasma fractions were separated from the whole blood by centrifugation for 10 minutes at 2000×g and pooled.
The test inhibitors were solubilized in DMSO to a stock concentration of 30 mM. On the day of the assay, dose response plates were prepared by diluting the inhibitors in DMSO to a compound concentration 200-fold the final in-assay concentration. Concentration series were prepared by serially diluting in 100% DMSO in a three-fold series. […] From this intermediate compound plate, 10 μL were transferred to the assay plate and mixed with 20 uL of the pooled human plasma. The inhibitor and enzyme were co-incubated at room temperature for 30 minutes. The enzyme reaction was initiated by the addition of 10 μL of 200 uM pantetheine 7-amino-4-trifluoromethylcoumarin prepared in assay buffer. The final concentrations in the assay were 50% plasma, and 50 uM substrate. The final concentration of DMSO was 0.5%. Datapoints were measured over time using a Tecan Safire 2 platereader at 405 nm excitation wavelength and a 510 nm emission wavelength for detection.

human vanin-1 = human vanin-1 (Homo sapiens (Human), UniProt O95497); experiment: Human Vanin-1 Enzyme Assay 1; format: biochemical; settings: 25 pM human vanin-1, 50 uM pantetheine 7-amino-4-trifluoromethylcoumarin substrate
Protocol: Human Vanin-1Enzyme Assay 1.
The in vitro assay measures enzymatic cleavage of the fluorescently-labeled vanin substrate, pantetheine 7-amino-4-trifluoromethylcoumarin, by human vanin-1.
The vanin-1 protein was prepared in-house from a construct expressing the extracellular domain of human vanin-1 (GenBank ID NM_004666) preceded N-terminally by the honey bee melittin signal peptide, a GSG linker sequence, a His6× tag and a FLAG tag. The secreted, soluble enzyme was purified from the conditioned medium from a CHO cell line stably expressing the resulting protein. Enzyme purification was performed through sequential Ni NTA and size-exclusion chromatography steps.
Intermediate concentrations were prepared by diluting in DMSO in a four-fold series for a total of 11 data points.
To begin the assay 100 nL was transferred from the compound plate to the assay plate. Next, 15 μL of the vanin-1 working solution were transferred to the assay plate. The inhibitor and enzyme were incubated at room temperature for 30 minutes. The enzyme reaction was then initiated by the addition of 5 μL of 200 μM pantetheine 7-amino-4-trifluoromethylcoumarin prepared in assay buffer. […] The final concentration of DMSO was 0.5%.

Sequence of human vanin-1 (O95497 22-491): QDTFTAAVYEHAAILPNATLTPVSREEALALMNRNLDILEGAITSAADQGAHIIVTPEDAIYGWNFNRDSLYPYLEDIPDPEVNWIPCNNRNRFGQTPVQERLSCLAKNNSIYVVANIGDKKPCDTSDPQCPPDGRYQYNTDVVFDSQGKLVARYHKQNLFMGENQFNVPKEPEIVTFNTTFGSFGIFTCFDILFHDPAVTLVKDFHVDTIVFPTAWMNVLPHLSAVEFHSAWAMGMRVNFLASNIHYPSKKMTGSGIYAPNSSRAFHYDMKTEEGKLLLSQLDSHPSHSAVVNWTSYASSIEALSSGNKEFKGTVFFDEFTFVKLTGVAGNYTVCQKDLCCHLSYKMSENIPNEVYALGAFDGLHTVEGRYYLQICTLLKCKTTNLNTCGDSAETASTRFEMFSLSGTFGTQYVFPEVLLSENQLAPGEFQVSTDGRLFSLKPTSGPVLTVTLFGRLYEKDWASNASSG
Sequence of human vanin-1 present in human plasma (O95497 22-491): as above

SMILES: C[C@H](Nc1ncc(C(=O)N2CC3(CCOCC3)C2)cn1)c1cnccn1 [Example 147]
- IC50 [1]: 1.89 nM
- IC50 (human vanin-1): 0.65 nM

SMILES: O=C(c1cnc(NCc2cncnc2)nc1)N1CC2(CCOCC2)C1 [Example 186]
- IC50 [1]: 4.63 nM
- IC50 (human vanin-1): 5.48 nM

SMILES: C[C@H](Nc1ncc(C(=O)N2CCC3(CCOCC3)C2)cn1)c1cncnc1 [Example 149]
- IC50 [1]: 1.3 nM
- IC50 (human vanin-1): 0.677 nM

SMILES: O=C(c1cnc(NC2(c3cncnc3)CC2)nc1)N1CCCCC1 [Example 190]
- IC50 [1]: 12.4 nM
- IC50 (human vanin-1): 12.5 nM

SMILES: O=C(c1cnc(NC2(c3cnccn3)CCC2)nc1)N1CCC2(CCOCC2)C1 [Example 130, 8-oxa-2-azaspiro[4.5]dec-2-yl(2-{[1-(pyrazin-2-yl)cyclobutyl]amino}pyrimidin-5-yl)methanone]
- IC50 [1]: 0.743 nM
- IC50 (human vanin-1): < 0.041 nM

SMILES: Cc1ncc(CNc2ncc(C(=O)N3CCC4(CCOCC4)C3)cn2)cn1 [Example 170]
- IC50 [1]: 16.5 nM
- IC50 (human vanin-1): 6.33 nM

SMILES: CC(C)(Nc1ncc(C(=O)N2CCC3(CCOCC3)C2)cn1)c1cnccn1 [Example 182, 8-oxa-2-azaspiro[4.5]dec-2-yl(2-{[2-(pyrazin-2-yl)propan-2-yl]amino}pyrimidin-5-yl)methanone]
- IC50 [1]: 1.08 nM
- IC50 (human vanin-1): 0.062 nM

SMILES: O=C(c1cnc(NCc2cncnc2C(F)(F)F)nc1)N1CCC2(CCOCC2)C1 [Example 166]
- IC50 [1]: 39.1 nM
- IC50 (human vanin-1): 32.6 nM

SMILES: O=C(c1cnc(NCc2cnccn2)nc1)N1CC2(CCOCC2)C1 [Example 135]
- IC50 [1]: 3.7 nM
- IC50 (human vanin-1): 3.38 nM

SMILES: CC(C)(Nc1ncc(C(=O)N2CC3(CCOCC3)C2)cn1)c1cnccn1 [Example 131, 7-oxa-2-azaspiro[3.5]non-2-yl(2-{[2-(pyrazin-2-yl)propan-2-yl]amino}pyrimidin-5-yl)methanone]
- IC50 [1]: 0.838 nM
- IC50 (human vanin-1): < 0.094 nM

SMILES: O=C(c1cnc(NC2(c3cnccn3)CC2)nc1)N1CC2(CCOCC2)C1 [Example 158]
- IC50 [1]: 2.03 nM
- IC50 (human vanin-1): 1.11 nM

SMILES: C[C@@H](Nc1ncc(C(=O)N2CCC3(CCOCC3)C2)cn1)c1cncnc1 [Example 150]
- IC50 [1]: 35.6 nM
- IC50 (human vanin-1): 27.8 nM

SMILES: O=C(c1cnc(NC2(c3cncnc3)CC2)nc1)N1CCC2(CC1)COC2 [Example 59]
- IC50 [1]: 49.2 nM
- IC50 (human vanin-1): 47.4 nM

SMILES: CC1(CO)CCCN(C(=O)c2cnc(NC3(c4cncnc4)CC3)nc2)C1 (stereo not drawn) [Example 108]
- IC50 [1]: 452 nM
- IC50 (human vanin-1): 387 nM

SMILES: O=C(c1cnc(NC2(c3cnccn3)CC2)nc1)N1CCC2(CCOCC2)C1 [Example 157]
- IC50 [1]: 12.9 nM
- IC50 (human vanin-1): 0.875 nM

SMILES: CC(C)(Nc1ncc(C(=O)N2CCC3(CCOCC3)C2)cn1)c1cncnc1 [Example 143, 8-oxa-2-azaspiro[4.5]dec-2-yl(2-{[2-(pyrimidin-5-yl)propan-2-yl]amino}pyrimidin-5-yl)methanone]
- IC50 [1]: 1.22 nM
- IC50 (human vanin-1): 0.082 nM

SMILES: O=C(c1cnc(NC2(c3cncnc3)COC2)nc1)N1CCC2(CCOCC2)C1 [Example 133]
- IC50 [1]: 0.524 nM
- IC50 (human vanin-1): 0.43 nM

SMILES: Cc1ccc(CNc2ncc(C(=O)N3CCC4(CCOCC4)C3)cn2)cn1 [Example 137]
- IC50 [1]: 5.02 nM
- IC50 (human vanin-1): 5.24 nM

SMILES: O=C(c1cnc(NC2(c3cncnc3)CC2)nc1)N1CCC(C(F)(F)F)C1 (single isomer, unassigned) [Example 193]
- IC50 [1]: 5.39 nM
- IC50 (human vanin-1): 7.12 nM

SMILES: O=C(c1cnc(NC2(c3cncnc3)CCC2)nc1)N1CCC2(CCOCC2)C1 [Example 173]
- IC50 [1]: 1.61 nM
- IC50 (human vanin-1): 0.116 nM

SMILES: O=C(c1cnc(NC2(c3ncccn3)CC2)nc1)N1CC2(CCOCC2)C1 [Example 179]
- IC50 [1]: 14.4 nM
- IC50 (human vanin-1): 7.33 nM

SMILES: C[C@H](Nc1ncc(C(=O)N2CCC3(CCOCC3)C2)cn1)c1ccncn1 [Example 155]
- IC50 [1]: 27.5 nM
- IC50 (human vanin-1): 4.39 nM

SMILES: Cc1ccc([C@H](C)Nc2ncc(C(=O)N3CCC4(CCOCC4)C3)cn2)cn1 [Example 140]
- IC50 [1]: 0.95 nM
- IC50 (human vanin-1): 0.283 nM

SMILES: CC(Nc1ncc(C(=O)N2CC3(CCOCC3)C2)cn1)c1cncnc1 (stereo not drawn) [Example 184]
- IC50 [1]: 2.21 nM
- IC50 (human vanin-1): 1.45 nM

SMILES: CN1CC2(CCN(C(=O)c3cnc(NC4(c5cncnc5)CC4)nc3)CC2)OC1=O [Example 57]
- IC50 (human vanin-1): 611 nM

SMILES: NC(=O)C1CCN(C(=O)c2cnc(NCc3cccnc3)nc2)CC1 [Example 29]
- IC50 (human vanin-1): 1920 nM

SMILES: NC(=O)C1CCCN(C(=O)c2cnc(NCc3cccnc3)nc2)C1 (stereo not drawn) [Example 13]
- IC50 (human vanin-1): 101 nM

SMILES: C[C@@H](Nc1ncc(C(=O)N2CC3(CCOCC3)C2)cn1)c1cnccn1 [Example 148]
- IC50 (human vanin-1): 54.5 nM

SMILES: Cc1cnc(CNc2ncc(C(=O)N3CCC4(CCOCC4)C3)cn2)cn1 [Example 164]
- IC50 (human vanin-1): 27.3 nM

SMILES: O=C(c1cnc(NC2(c3cncnc3)CC2)nc1)N1CCC2(CCCCO2)CC1 [Example 50]
- IC50 (human vanin-1): 19.9 nM

SMILES: O=C(c1cnc(NC2(c3cncnc3)CC2)nc1)N1CCCC[C@H]1CO [Example 45]
- IC50 (human vanin-1): 1850 nM

SMILES: O=C(c1cnc(NC2(c3cncnc3)CC2)nc1)N1CCC(O)C(C(F)(F)F)C1 (stereo not drawn) [Example 94]
- IC50 (human vanin-1): 20.4 nM

SMILES: C[C@@H](Nc1ncc(C(=O)N2CC3(CCOCC3)C2)cn1)c1cncnc1 [Example 152]
- IC50 (human vanin-1): 91.3 nM

SMILES: C[C@@H](Nc1ncc(C(=O)N2CCC3(CCOCC3)C2)cn1)c1ccncn1 [Example 156]
- IC50 (human vanin-1): 838 nM

SMILES: Cc1ncc(CNc2ncc(C(=O)N3CC4(CCOCC4)C3)cn2)cn1 [Example 171]
- IC50 (human vanin-1): 7.33 nM

SMILES: C[C@@H]1CCCN1C(=O)c1cnc(NC2(c3cncnc3)CC2)nc1 [Example 76]
- IC50 (human vanin-1): 122 nM

SMILES: O=C(c1cnc(NCc2cnccn2)nc1)N1CC[C@@H](N2CCOCC2)C1 [Example 124]
- IC50 (human vanin-1): 4620 nM

SMILES: O=C(c1cnc(NC2(c3cncnc3)CC2)nc1)N1CCC[C@H]1CO [Example 66]
- IC50 (human vanin-1): 231 nM

SMILES: O=C(c1cnc(NC2(c3cncnc3)CC2)nc1)N1CCC(F)(F)CC1 [Example 98]
- IC50 (human vanin-1): 5.66 nM

SMILES: O=C(c1cnc(NCCc2cncnc2)nc1)N1CCC2(CCOCC2)C1 [Example 181]
- IC50 (human vanin-1): 200 nM

SMILES: CN1CC2(COCCN(C(=O)c3cnc(NC4(c5cncnc5)CC4)nc3)C2)OC1=O (stereo not drawn) [Example 75]
- IC50 (human vanin-1): 1080 nM

SMILES: C[C@H](Nc1ncc(C(=O)N2CC3CN(C)CC3C2)cn1)c1cnccn1 (stereo partly drawn) [Example 127]
- IC50 (human vanin-1): 587 nM

SMILES: Cc1ccc(C2(Nc3ncc(C(=O)N4CC5(CCOCC5)C4)cn3)CC2)cn1 [Example 176]
- IC50 (human vanin-1): 0.911 nM

SMILES: O=C(Nc1ncc(C(=O)N2CCC3(CCOCC3)C2)cn1)c1cnccn1 [Example 204, N-[5-(8-oxa-2-azaspiro[4.5]dec-2-ylcarbonyl)pyrimidin-2-yl]pyrazine-2-carboxamide]
- IC50 (human vanin-1): 5160 nM

SMILES: O=C(c1cnc(NC2(c3cncnc3)CC2)nc1)N1C[C@@H](F)C[C@@H]1CO [Example 48]
- IC50 (human vanin-1): 20000 nM

SMILES: O=C(c1cnc(NC2(c3cncnc3)CC2)nc1)N1CCCC(CO)C1 (stereo not drawn) [Example 106]
- IC50 (human vanin-1): 30.8 nM

SMILES: O=C(c1cnc(NC2(c3cncnc3)CC2)nc1)N1C2CCC1COC2 [Example 97]
- IC50 (human vanin-1): 345 nM

SMILES: C[C@H]1C[C@@H](O)CN(C(=O)c2cnc(NC3(c4cncnc4)CC3)nc2)C1 [Example 86]
- IC50 (human vanin-1): 24.2 nM

SMILES: NC(=O)CC1CCN(C(=O)c2cnc(NCc3cccnc3)nc2)CC1 [Example 30]
- IC50 (human vanin-1): 2170 nM

SMILES: O=C(c1cnc(NC2(c3cncnc3)CC2)nc1)N1CCC[C@@]2(CCCC[C@@H]2O)C1 [Example 77]
- IC50 (human vanin-1): 31.3 nM

SMILES: CC(=O)NC1CCCN(C(=O)c2cnc(NCc3cccnc3)nc2)C1 (stereo not drawn) [Example 23]
- IC50 (human vanin-1): 613 nM
